Data from patent US8486959B2, “Dibenzo[f,h]isoquinoline derivatives” (National Health Research Institutes, priority 2010, dated 2013).
Where two headings read alike, the source gives them in different places.

How the values were obtained:
Type in all cases: cell-based
[1] = test system: NCI H460, MCF7, SF268, HONE-1, NUGC-3, HepG2 and A549 cells; test: Inhibition of cancer cell growth (MTS assay); conditions: Homo sapiens, tested cancer cells, 72 h, read-out: CC50 (concentration required to reduce the cancer cell growth by 50%)
Protocol: NCI H460 (human lung cancer cell line), MCF7 (human breast cancer cell line), SF268 (human brain cancer cell line), HONE-1 (human nasopharyngeal epithelial carcinomas cell line), NUGC-3 (human gastric cancer cell line) cells, HepG2 (human hepatocellular carcinoma cell line), and A549 (human lung adenocarcinoma epithelial cell line) were maintained in DMEM medium containing 10% fetal bovine serum, seeded in 96-well plates (2500, 6500, 7500, 4500, 6000, 10000, or 5000 cells/well), and incubated at 37° C. with 5% CO2 supply for 24 h. The cells were then incubated with or without a test compound (at five different concentrations) in a CO2 incubator at 37° C. for 72 h. The number of viable cells in each well was determined by the tetrazolium dye reduction assay (MTS assay) according to the protocol provided by the manufacturer (Promega, Madison, Wis., USA). For each test compound, a dose-response curve was drawn based on the concentrations of the compound versus the numbers of viable cells treated with the compound at those concentrations. The CC50 value of that compound, referring to the concentration of the compound required to reduce the cancer cell growth by 50%, was determined according to the dose-response curve.

[2] = test system: NO production in RAW 264.7 cells; test: Inhibition of nitric oxide production (Nitrate/Nitrite assay, Griess reagent); conditions: Mus musculus, RAW264.7, LPS (10 μg/ml)/IFNγ (20 ng/ml), 18-24 h, read-out: EC50 value for inhibiting nitric oxide production
Protocol: RAW 264.7 cells were seeded (70,000 cells/well) and cultured in a 96-well culture plate using the DMEM medium described above. 24 hours later, the medium was replaced with a fresh DMEM medium supplemented with LPS (10 μg/ml)/IFNγ (20 ng/ml). Test compounds (at different concentrations) were then added. The cells, incubated with or without test compounds, were then cultured for 18-24 h and the nitrate and nitric oxide levels in the culturing medium were measured using a Nitrate/Nitrite assay kit (Cayman Chemical). Nitrate was reduced to nitrite with nitrate reductase and determined spectrophotometrically with Griess reagent at OD540. For each test compound, a dose-response curve was drawn based on the concentrations of the compound versus the corresponding nitrate/nitric oxide levels in the culturing media of the cells treated with the compound. The EC50 value of that compound for inhibiting nitric oxide production was determined according to the dose-response curve.

[3] = test system: Transmissible Gastroenteritis Virus (TGEV) spike (S) and nucleocapsid (N) proteins; test: Inhibition of TGEV protein production (indirect immunofluorescent assay in ST cells)
Protocol: Swine testicular (ST) cells were cultured in a 96-well plate in the presence or absence of a test compound (at 8 different concentrations) for 2 hours and then infected with TGEV at a MOI of 10. Six hours after TGEV infection, the ST cells were fixed with 80% acetone and subjected to an indirect immunofluorescent assay (IFA) to examine the levels of TGEV spike (S) and nucleocapsid (N) proteins. Briefly, the fixed cells were incubated with murine monoclonal antibodies specific to these two viral proteins for a sufficient period to allow binding of the antibodies to the viral proteins. After being washed with phosphate-buffered saline for three times, the cells were incubated with a fluorescein isothiocyanate-conjugated anti-mouse immunoglobulin antibody (ICN Pharmaceuticals, Inc./Cappel) for 60 min at room temperature. The cells were washed again with phosphate-buffered saline for three times, and the fluorescence intensities released from these cells were measured by a Wallac Victor II system (Packard, Inc.) at excitation and emission wavelengths 485 nm and 535 nm, respectively. The 50% effective concentration (EC50) for inhibiting S and N protein expression of the test compound was determined based on the florescence intensity values thus measured. Alternatively, the fluorescence intensities were detected by fluorescence microscopy. More specifically, the fluorescent images produced under 485 nm and 535 nm were captured by a charge-coupled device linked to a Leica IM50 Image Manager.

[4] = Alphacoronavirus 1, ST cells, compound 2 hours before TGEV infection at MOI of 10, read six hours after infection, read-out: EC50 for inhibiting S and N protein expression
[5] = Alphacoronavirus 1, read-out: EC50 for inhibiting S and N protein expression

SMILES | CC50 [1] | EC50 [2] | EC50 [3, 4] | EC50 [3, 5]
CCN1CCc2c(c3cc(OC)ccc3c3cc(OC)c(OC)cc23)C1 [Compound 30] | < 50 µM | – | – | –
CCN1Cc2c(c3cc(OC)c(OC)cc3c3cc(OC)c(OC)cc23)C(O)C1 (centres unmarked) [Compound 9] | < 50 µM | < 1000 nM | < 1000 nM | –
COc1cc2c3c(c4cc(OC)c(OC)cc4c2cc1OC)CN(CC(C)C)CC3 [Compound 21] | < 50 µM | – | – | –
CCCCN1CCc2c(c3cc(OC)c(OC)cc3c3cc(OC)c(OC)cc23)C1 [Compound 20] | < 50 µM | – | – | –
COc1cc2c3c(c4cc(OC)c(OC)cc4c2cc1OC)CN(CCNC(=O)OC(C)(C)C)CC3 [Compound 35] | < 50 µM | – | – | –
CCCN1CCc2c(c3cc(OC)c(OC)cc3c3c(OC)c(OC)c(OC)cc23)C1 [Compound 2] | < 50 µM | – | – | < 1000 nM
CCCN1CCc2c(c3cc(OC)ccc3c3c(OC)c(OC)ccc23)C1 [Compound 32] | < 50 µM | – | – | –
CCCN1Cc2c(c3cc(OC)c(OC)c(OC)c3c3cc(OC)c(OC)cc23)C(O)C1 (centres unmarked) [Compound 8] | < 50 µM | – | < 1000 nM | –
COc1cc2c3c(c4cc(OC)c(OC)cc4c2cc1OC)CN(C(C)C)CC3 [Compound 25] | < 50 µM | < 1000 nM | – | < 1000 nM
CCN1CCc2c(c3cc(OC)c(OC)cc3c3cc(OC)c(OC)cc23)C1 [Compound 18] | < 50 µM | – | – | –
COc1cc2c3c(c4cc(OC)c(OC)cc4c2cc1OC)CN(CC1OCCO1)CC3 [Compound 23] | < 50 µM | – | – | –
CCN1CCc2c(c3cc(OC)c(OC)cc3c3c(OC)c(OC)c(OC)cc23)C1 [Compound 1] | < 50 µM | < 1000 nM | – | < 1000 nM
CCCN1CCc2c(c3cc(OC)c(OC)cc3c3cc(OC)ccc23)C1 [Compound 6] | < 50 µM | – | < 1000 nM | –
COc1cc2c3c(c4cc(OC)c(OC)cc4c2cc1OC)C(O)CN(C(C)C)C3 (centres unmarked) [Compound 14] | < 50 µM | < 1000 nM | – | –
COc1cc2c3c(c4cc(OC)c(OC)cc4c2cc1OC)CN(CCC1OCCO1)CC3 [Compound 24] | < 50 µM | – | – | –
CCCN1CCc2c(c3cc(OC)ccc3c3cc(OC)c(OC)cc23)C1 [Compound 31] | < 50 µM | – | – | –
COc1cc2c3c(c4cc(OC)c(OC)cc4c2cc1OC)CN(C1C=CCCC1)CC3 (centres unmarked) [Compound 34] | < 50 µM | – | – | –
CCCN1CCc2c(c3ccc(OC)cc3c3cc(OC)c(OC)cc23)C1 [Compound 29] | < 50 µM | – | – | –
CCC(C)N1CCc2c(c3cc(OC)c(OC)cc3c3cc(OC)c(OC)cc23)C1 (centres unmarked) [Compound 26] | < 50 µM | – | – | < 1000 nM
CCCCN1CCc2c(c3cc(OC)c(OC)cc3c3cc(OC)ccc23)C1 [Compound 7] | < 50 µM | – | – | –
CCN1CCc2c(c3cc(OC)c(OC)cc3c3cc(OC)ccc23)C1 [Compound 5] | < 50 µM | – | < 1000 nM | –
COc1cc2c3c(c4cc(OC)c(OC)c(OC)c4c2cc1OC)CCN(C(C)C)C3 [Compound 4] | < 50 µM | – | < 1000 nM | –
CCCCN1CCc2c(c3cc(OC)c(OC)cc3c3c(OC)c(OC)c(OC)cc23)C1 [Compound 3] | < 50 µM | – | – | –
CCCN1Cc2c(c3cc(OC)c(OC)cc3c3cc(OC)c(OC)cc23)C(O)C1 (centres unmarked) [Compound 10] | < 50 µM | < 1000 nM | < 1000 nM | –
CCN1Cc2c(c3ccc(OC)cc3c3cc(OC)c(OC)cc23)C(O)C1 (centres unmarked) [Compound 33] | < 50 µM | < 1000 nM | – | –
COc1cc2c3c(c4cc(OC)c(OC)cc4c2cc1OC)CN(CCN)CC3 [Compound 36] | < 50 µM | – | – | –
CCCN1CCc2c(c3cc(OC)c(OC)cc3c3cc(OC)c(OC)cc23)C1 [Compound 19] | < 50 µM | – | – | < 1000 nM
